Reference: patent US5032398A, “Selective modification of the catalytic subunit of pertussis toxin” (priority 1986, dated 1991)
Values joined by “and” are separate entries in the source; they are usually repeats but may differ in a detail not shown here. Equal values may be shown once.

How the values were obtained:
Type in all cases: biochemical
pertussis toxin [1] = target: T1, pertussis toxin (Bordetella pertussis, UniProt P04977); assay: NADase activity in the presence of sulfhydryl reducing agents (Example Five)
Procedure: In the description herein, activation constants for the substances may be expressed by a numerical value (A0.5) by using an NADase assay.
The pertussis toxin in the Examples comprised 50 μg of the toxin in a 500 μl solution of 10 mM sodium phosphate-50 mM sodium chloride-water solution having a pH of 7. The enzymatic activity was detected as the hydrolysis of nicotinamide labelled NAD and ion-exchange column chromatography to resolve the product from the substrate. Unless otherwise noted, the assay was initiated by adding 0.5 to 2.5 μg of the toxin to a reaction mixture for a final volume of 100 μl. The NADase reaction was terminated by adding 0.85 ml of ice-cold water. The entire 0.95 ml was then pipetted into a QAE-Sephadex column (chloride form) and the labelled nicotinamide eluted with 3 ml of water directly into a scintillation vial and counted. […] One unit of NADase activity is defined as 1 pmol NAD hydrolyzed per hour.
Pertussis toxin NADase activity was assayed in the presence of various sulfhydryl reducing agents at various concentrations. The assay buffer contained 1% CHAPS and 1 mM ATP.

pertussis toxin [2] = target: T1, pertussis toxin; assay: Inactivation of NADase activity by iodoacetate after different activator combinations (Example Seven); conditions: additions to first incubation only (DTT 1 mM, ATP 1 mM, CHAPS 1%); second incubation none; read-out: Percent NADase activity relative to iced control
Procedure: Pertussis toxin was incubated first at 37° C. for fifteen minutes in […] buffer A (100 mM Tris-HCl, pH 8.0 with 1 mM NaEDTA). EDTA was added to chelate divalent cations, which may promote oxidation of free --SH groups. During this incubation, DTT and ATP were present in concentrations of 1 mM each, and CHAPS was present in a concentration of 1 weight percent. Labelled iodoacetate was then added ([…], 12.5 mM), and the tube incubated on ice for twenty hours. The sample was then mixed with sodium dodecylsulfate and β-mercaptoethanol, heated at 95° C. for one minute, and electrophoresed. After electrophoresis, the gel was fixed, treated with Fluorohance (Research Products International), dried and used to expose x-ray film.
Pertussis toxin was incubated at 37° C. for fifteen minutes as described in Example Six, and then a second incubation was begun by adding 10 μl buffer A with or without 12.5 mM iodoacetate, mixing the contents of the tube and lowering the temperature to 30° C. After fifteen minutes, the tubes were shifted to an ice bath for ten minutes. A third incubation was then begun by adding 10 μl buffer A containing 200 mM DTT to those tubes containing iodoacetate to scavenge the iodoacetate. To those tubes not containing iodoacetate during the second incubation, a mixture of 200 mM DTT and 12.5 mM iodoacetate in buffer A, previously incubated for an hour on ice, was added. The third incubation was continued for one hour on ice.
The contents of each tube were then assayed for NADase activity by adding 40 μl of a reaction mix consisting of buffer A containing carbon-14 labelled NAD (final concentration in the 100 μl final volume was 25 μM), and 50 mM sodium chloride. Different reaction mixtures with various additions were used, so that in all tubes the final concentration of ATP was 1 mM and CHAPS was 1 weight percent. The assay was conducted at 37° C. for sixty minutes, and the released labelled nicotinimide was isolated and counted. The iced controls were formed by incubating pertussis toxin (1 μg) on ice in 10 mM sodium phosphate (pH 7) and 50 mM sodium chloride during the first three incubations. […] The first three incubations were done under a nitrogen atmosphere using degassed conditions, and the second and third incubations were done under subdued light.

pertussis toxin [3] = target: T1, pertussis toxin; assay: NADase activity in the presence of sulfhydryl reducing agents (Example Five); conditions: 10 mM DTT without ATP

T1 sequence (P04977 35-269 limits assumed): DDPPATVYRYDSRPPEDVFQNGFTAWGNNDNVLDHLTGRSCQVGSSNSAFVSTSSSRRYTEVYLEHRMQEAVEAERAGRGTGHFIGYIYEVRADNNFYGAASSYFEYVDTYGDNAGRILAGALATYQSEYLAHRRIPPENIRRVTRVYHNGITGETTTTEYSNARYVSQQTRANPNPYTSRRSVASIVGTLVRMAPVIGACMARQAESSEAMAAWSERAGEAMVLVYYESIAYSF

O[C@H](CS)[C@H](O)CS (racemic) [DTT, dithiothreitol]
Effectiveness as sulfhydryl reductant to prepare the toxin for deactivation, in words (pertussis toxin [1]): effective
NADase activity (pertussis toxin [1]; 10 mM DTT with 1 mM ATP): 147 U per microgram toxin and 195 U per microgram toxin
EC50 (pertussis toxin [1]; read-out: concentration for half of the maximum effect (A0.5)): 200 µM
EC100 (pertussis toxin [1]; read-out: concentration showing full activation): 1000 µM
remaining activity at 1000 µM (pertussis toxin [2]): 38%
NADase activity (pertussis toxin [3]): 18 U per microgram toxin and 36 U per microgram toxin
